# From US7964359B2, “Compositions and methods for the enhancement of soluble amyloid beta oligomer (ADDL) uptake and clearance” (Acumen Pharmaceuticals, Inc., priority 2006, dated 2011)
# How the values were obtained:
# [1] = tested on: cells over-expressing insulin receptor; assay: ADDL uptake and clearance by cells over-expressing insulin receptor; format: cell-based
# Source text: The amount of oligomeric Aβ peptide assemblies present in cell lysates and culture medium is presented.
# Total ADDL levels were higher than other treatment conditions. […] In the presence of insulin, ADDLs were internalized and detected in the center of the intracellular compartment. In the presence of AG1024, the majority of ADDLs were retained in the extracellular compartment.
# [2] = tested on: cultured cortical neurons; assay: ADDL uptake in cultured cortical neurons (western blot of medium, immunoprecipitation of lysates); format: cell-based
# Procedure: Primary cortical cultures were prepared from 1-day old pups and maintained in serum-free neurobasal A medium complemented with 2% B-27, […] L-glutamine and 5 μg/mL bFGF. Synthetic oligomeric Aβ peptide assemblies (100 nM) were applied to cultured cortical neurons and incubated at 37° C. for 30 minutes. […] After separation on SDS-PAGE, the precipitated oligomeric Aβ peptide assemblies were detected on western blots with 6E10 antibody. The bar graph (mean±SE) summarizes data from four independent replicated treatments.
# (§1) ADDL Uptake and Clearance by Neurons Occurs Via Insulin Receptor Signaling. […] Extracellular ADDL levels were measured on western blots using a concentrated medium. […] On the other hand, the intracellular ADDLs were detected by immunoprecipitation (FIG. 2B). […] This uptake, however, was prevented by […] (FIG. 2B, lane 5, 6).
# hippocampal neurons [3] = assay: ADDL uptake in hippocampal neurons; format: cell-based
# Procedure: as §1
# hippocampal neurons [4] = assay: MTT cell viability assay after ADDL/insulin treatment; format: cell-based
# hippocampal neurons [5] = assay: ADDL binding to hippocampal neurons after insulin pre-incubation; format: cell-based; settings: for prevention of ADDL binding to hippocampal neurons: then 100 nM ADDLs
# Source text: This possibility seems unlikely, however, given the abundance of insulin receptors in cell bodies of ADDL-exposed neurons.
# insulin receptor [6] = molecular target: T1, insulin receptor (Rattus norvegicus, UniProt P15127); assay: Insulin receptor tyrosine phosphorylation in hippocampal neuronal cultures; format: cell-based; design: endogenous in cells; host or cells: rat primary hippocampal and cortical neuronal cultures; settings: for tyrosine phosphorylation of the insulin receptor: substance alone; for tyrosine phosphorylation of the insulin receptor / insulin-stimulated insulin receptor tyrosine phosphorylation: hippocampal neurons; for insulin-stimulated insulin receptor tyrosine phosphorylation: ADDLs with 100 nM insulin
# Procedure: The insulin receptor was immunoprecipitated by an antibody against the β subunit of the insulin receptor. The precipitated proteins were then detected on separate western blots by an anti-phosphotyrosine antibody and an anti-insulin receptor β subunit antibody, respectively. The ratio of phosphorylated and regular receptors was calculated after densitometry scan and compared among different treatments.
# (§2) The tyrosine phosphorylation extent of insulin receptor was examined by precipitating insulin receptor with anti-insulin receptor antibody followed by blotting with anti-pTyr antibody on western blots.
# (§3) Upon termination of the reaction, the extracellular medium was removed and cell lysates were prepared with a lysis buffer. The tyrosine phosphorylation of insulin receptor was assessed by immunoprecipitation of insulin receptor with a specific anti-insulin receptor antibody, followed by blotting the precipitated receptor with an anti-tyrosine antibody.
# insulin receptor [7] = molecular target: T1, insulin receptor; assay: Insulin receptor tyrosine phosphorylation in cortical neuronal cultures; format: cell-based; design: endogenous in cells; host or cells: rat primary hippocampal and cortical neuronal cultures; settings: cortical neurons
# Procedure: as §2, §3
# IRS1 = IRS1 serine307 phosphorylation in hippocampal neuronal cultures; format: cell-based; settings: 150 nM ADDLs, 60 minutes
# Source text: Equal amount of total proteins from soluble cell lysates from each condition was separated on SDS-PAGE and transferred to nitrocellulose membranes. The phosphorylation extent of IRS1 Ser307 was detected with an anti-IRS1 PSer307 antibody. Identical samples on a separate membrane were blotted with an anti-total amount of IRS1 (rIRS1). The immunoreactivities of pIRS1(Ser307) were normalized with those of rIRS1. Values from each experimental group were converted to percent control and analyzed with one-way ANOVA, ***p<0.0001; **p<0.01.
# Akt [8] = assay: Akt ser473 phosphorylation in hippocampal neurons; format: cell-based; settings: 1 hour post-ADDL/INS treatment
# Source text: (§4) Equalized total amount of protein from soluble cell lysates were separated on SDS-PAGE, and pAkt ser473 detected on western blots with a specific antibody against pAkt ser473. Identical samples transferred to a separate membrane were detected with an anti-total Akt (rAkt) antibody for internal normalization. The normalized pAkt extent from each experimental condition was converted to percent control and analyzed with one-way ANOVA, **P<0.01.
# (§5) In the presence ADDLs, however, there was an increase in pAkt ser473. […] To test whether inhibition of phosphatase 2A (PP2A) causes a similar enhancement of pAkt ser473, the cortical neurons were pre-treated with okadaic acid (OA), a potent PP2A/PP1 inhibitor at a concentration (10 nM) preferentially inhibiting PP2A.
# Akt [9] = assay: Akt ser473 phosphorylation in cortical neurons; format: cell-based; settings: 6 hours
# Source text: as §4, §5
# MAP kinase = assay: Insulin-induced MAP kinase phosphorylation; format: cell-based; settings: ADDL treatment
# Source text: Identified herein is a signaling loop in which molecular pathology of AD and type II diabetes can be interconnected.
# insulin receptor [10] = molecular target: T2, insulin receptor (Homo sapiens, UniProt P06213); assay: Ligand blotting of ADDLs to precipitated insulin receptor; format: binding; design: expressed in transfected cells; settings: 100 nM ADDLs; receptors from cells with and without insulin treatment
# Source text: The cell lysates were subjected to co-immunoprecipitation, in which a specific anti-ADDL antibody (20C2) was used to precipitated ADDLs and proteins that complexed with ADDLs. This was followed by detection of insulin receptor from precipitated proteins on a western blot. […] To test whether the ADDL-insulin receptor interaction is direct, the human insulin receptors from insulin receptor expressing cells with and without insulin treatment were precipitated with an anti-insulin receptor antibody.
# insulin receptor [11] = molecular target: T1, insulin receptor; assay: Insulin receptor (IRα) immunofluorescence in mature hippocampal neurons after ADDL treatment; format: cell-based; design: endogenous in cells; host or cells: cultures of mature hippocampal neurons; settings: 100 nM ADDLs, 30 minutes
# Procedure: ADDLs were added to cultures at 100 nM and incubated for 30 minutes to allow for complete binding. […] Insulin receptors, identified using antibodies against the outward-directed alpha sub-unit, also distributed in a punctate manner.
# To investigate whether ADDLs cause IR impairment, changes in neuronal IR levels following ADDL treatment were analyzed. […] To detect neuronal surface IR, an antibody recognizing the alpha subunit of IR (IRα) localized on the extracellular membrane layer. Abundant IRα immunoreactivity was detected in cultured hippocampal neurons, which was particularly concentrated on the membrane of soma and dendrites. After treated with 100 nM ADDLs for 30 minutes, however, there was a drastic change in IRα immunostaining pattern with a substantial reduction of IRα from dendrites but an increase in the cell body. […] The increased cytosolic IRα immunoreactivity implicates internalization of the receptor. Loss of IRα occurred specifically to ADDL attacked dendrites. […] Similar to the above experiment, ADDLs were added to cultures at 100 nM and incubated for 30 minutes to allow for complete binding.
# The down-regulation of IR is likely due to internalization the receptor by ADDLs.
# insulin receptor [12] = molecular target: T1, insulin receptor; assay: Serine phosphorylation of insulin receptor in hippocampal neurons; format: cell-based; design: endogenous in cells; host or cells: rat primary hippocampal and cortical neuronal cultures; settings: 150 nM ADDLs, 60 minutes
# Procedure: The cell lysates were subjected to immunoprecipitation using an anti-insulin receptor antibody. The precipitated insulin receptors were analyzed by western blot with an anti-phosphoserine antibody to detect the serine phosphorylation extent of insulin receptor (pSer-IR). The pSer-IR extent was normalized with the total amount of precipitated insulin receptor. Each condition was converted to percent control before analyzed one-way ANOVA, **p<0.01.
# insulin receptor [13] = molecular target: T2, insulin receptor; assay: Effect of insulin signaling blockers on insulin-stimulated insulin receptor phosphorylation; format: cell-based
# Source text: These assays are validated via the use of control compounds such as insulin signaling and receptor antagonists and insulin sensitizers.
# insulin receptor [14] = molecular target: T2, insulin receptor; assay: ADDL breakdown by cells over expressing human insulin receptor; format: cell-based; design: expressed in transfected cells; settings: inhibition of insulin receptor
# insulin receptor [15] = molecular target: T2, insulin receptor; settings: cited from earlier work
# [16] = cells pretreated with inhibitor before ADDL and insulin
# T1 sequence (P15127 27-759 limits assumed): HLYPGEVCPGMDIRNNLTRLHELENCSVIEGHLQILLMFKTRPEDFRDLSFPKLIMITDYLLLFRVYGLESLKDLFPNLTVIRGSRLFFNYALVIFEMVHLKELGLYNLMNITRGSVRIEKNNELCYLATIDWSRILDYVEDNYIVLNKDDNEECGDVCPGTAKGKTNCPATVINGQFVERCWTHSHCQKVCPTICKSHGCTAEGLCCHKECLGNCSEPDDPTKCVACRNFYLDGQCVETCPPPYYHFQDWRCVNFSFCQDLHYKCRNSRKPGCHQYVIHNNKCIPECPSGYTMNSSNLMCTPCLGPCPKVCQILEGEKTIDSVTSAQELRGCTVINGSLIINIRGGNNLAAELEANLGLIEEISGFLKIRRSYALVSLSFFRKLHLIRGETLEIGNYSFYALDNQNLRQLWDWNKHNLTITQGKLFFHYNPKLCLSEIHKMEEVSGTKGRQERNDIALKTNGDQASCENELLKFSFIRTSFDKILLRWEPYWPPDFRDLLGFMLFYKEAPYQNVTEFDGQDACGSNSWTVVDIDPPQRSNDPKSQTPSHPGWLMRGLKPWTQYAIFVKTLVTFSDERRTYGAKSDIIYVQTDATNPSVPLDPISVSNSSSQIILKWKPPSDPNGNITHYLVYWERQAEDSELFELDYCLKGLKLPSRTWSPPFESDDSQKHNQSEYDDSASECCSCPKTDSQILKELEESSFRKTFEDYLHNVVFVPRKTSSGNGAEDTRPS
# T1 sequence (P15127 764-1383 limits assumed): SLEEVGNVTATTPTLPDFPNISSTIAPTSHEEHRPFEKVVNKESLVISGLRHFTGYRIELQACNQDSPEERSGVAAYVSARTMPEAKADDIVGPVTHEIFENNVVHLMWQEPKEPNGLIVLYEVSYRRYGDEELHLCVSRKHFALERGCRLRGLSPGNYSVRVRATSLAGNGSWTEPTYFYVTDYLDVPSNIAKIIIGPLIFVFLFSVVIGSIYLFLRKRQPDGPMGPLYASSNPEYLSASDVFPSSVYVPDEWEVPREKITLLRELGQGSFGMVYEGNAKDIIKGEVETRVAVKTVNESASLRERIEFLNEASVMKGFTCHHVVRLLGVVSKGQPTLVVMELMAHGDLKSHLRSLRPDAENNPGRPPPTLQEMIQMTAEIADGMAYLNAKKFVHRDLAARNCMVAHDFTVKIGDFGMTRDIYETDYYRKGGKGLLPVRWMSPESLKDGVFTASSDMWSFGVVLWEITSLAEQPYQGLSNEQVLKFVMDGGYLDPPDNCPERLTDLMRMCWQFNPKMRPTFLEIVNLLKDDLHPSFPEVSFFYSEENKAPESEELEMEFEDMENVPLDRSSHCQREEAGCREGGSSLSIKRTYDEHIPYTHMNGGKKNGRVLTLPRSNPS
molecule,measurement,setting,value
insulin,total amount of ADDLs,"[1]; 100 nM ADDL with insulin, P<0.01",significantly reduced
same,"ADDL uptake (ADDL levels in cell lysates up, extracellular medium down)","[1]; 100 nM ADDL, 100 nM insulin",stimulated ADDL uptake
same,ADDL oligomers in the cell lysate fractions,"[2]; 100 nM ADDLs, immunoprecipitation with 6E10",increase of ADDL oligomers
same,ADDL uptake into hippocampal neurons,hippocampal neurons [3],stimulated a striking ADDL uptake into hippocampal neurons in a clear dose-response manner
same,aggregated ADDLs in the extracellular medium,hippocampal neurons [3]; hippocampal neurons,reduced aggregated ADDLs in the extracellular medium in a dose-response manner
same,cell viability (MTT),hippocampal neurons [4]; ADDLs/insulin for 4 hours,no apparent toxic effects
same,ADDL binding and its effects,"hippocampal neurons [5]; insulin 1 micromolar, 30 minutes before ADDLs",blocked
same,prevention of ADDL binding to hippocampal neurons,hippocampal neurons [5]; pre-incubation with 100 nM insulin,~40%
same,prevention of ADDL binding to hippocampal neurons,hippocampal neurons [5]; pre-incubation with 1 μM insulin,~70%
same,tyrosine phosphorylation of the insulin receptor,insulin receptor [6],marked increases in insulin receptor tyrosine phosphorylation
same,tyrosine phosphorylation of the insulin receptor,insulin receptor [6]; listed as Insulin,stimulated an increase in tyrosine phosphorylation
same,insulin receptor tyrosine phosphorylation,insulin receptor [7]; 100 nM insulin,marked increases in insulin receptor tyrosine phosphorylation
"ADDLs: neurotoxic soluble oligomeric assemblies of Aβ 1-42, prepared from synthetic Aβ 1-42 peptide",neuronal toxicity (MTT cell viability),"hippocampal neurons [4]; ADDLs alone, varying treatment duration",cause neuronal toxicity in a treatment duration-dependent
same,IRS-1 serine 307 phosphorylation,IRS1,increase in serine phosphorylation of IRS-1
same,insulin-induced pAkt Ser473,Akt [8],enhancement of the insulin-induced pAkt Ser473
same,duration of insulin-induced increase in pAkt ser473,Akt [9],significantly prolonged
same,insulin-induced MAP kinase phosphorylation,MAP kinase,significantly inhibited
same,binding of ADDL to insulin receptor (ligand blot),insulin receptor [10],strong binding of ADDL to insulin receptor was detected only in the activated but not the control insulin receptor
same,insulin receptor immunoreactivity in cell bodies vs ADDL-free cells,insulin receptor [11],~3 fold
same,dendritic IRα fluorescent intensity,insulin receptor [11]; P<0.01,significant loss of IRα immunoreactivity
same,reduction of dendritic insulin receptor immunoreactivity vs ADDL-free cells,insulin receptor [11]; image analysis,~70%
same,amount of the insulin receptor,"insulin receptor [6]; ADDL treatment, hippocampal neuronal cultures",reduction in the amount of the insulin receptor
same,insulin-stimulated insulin receptor tyrosine phosphorylation,insulin receptor [6],significantly inhibited
same,insulin-stimulated insulin receptor tyrosine phosphorylation,insulin receptor [6]; listed as ADDL,abolished
same,insulin-stimulated insulin receptor tyrosine phosphorylation,insulin receptor [6]; listed as soluble oligomeric Aβ peptide assemblies,significant inhibition
same,tyrosine phosphorylation of the insulin receptor,insulin receptor [6],increase in tyrosine phosphorylation of the insulin receptor
same,insulin-induced insulin receptor tyrosine phosphorylation,insulin receptor [7]; ADDLs 50-150 nM with 100 nM insulin,significantly inhibited
same,serine phosphorylation of insulin receptor (pSer-IR),insulin receptor [12],increase in serine phosphorylation of insulin receptor
"CC(=O)OCOC(=O)CN(CC(=O)OCOC(C)=O)c1ccccc1OCCOc1ccccc1N(CC(=O)OCOC(C)=O)CC(=O)OCOC(C)=O [BAPTA-AM, 1,2-bis(o-aminophenoxy)ethane-N,N,N′,N′-tetraacetic acid tetra(acetoxymethyl)ester]",ADDL inhibition of insulin-stimulated IR tyrosine phosphorylation under chelation of intracellular Ca2+,"insulin receptor [6]; 100-150 nM ADDLs, neuronal depolarization and glutamate stimulation",could be rescued
O.O=C([O-])c1ccccc1-c1c2cc(I)c(=O)c(I)c-2oc2c(I)c([O-])c(I)cc12.[Na+].[Na+] [erythrosin B],insulin-stimulated insulin receptor phosphorylation,insulin receptor [13],significantly inhibited
"CC(C)(C)c1cc(C=C(C#N)C#N)cc(Br)c1O [AG1024, tyrphostin AG1024]",ADDL aggregates in the extracellular medium,[1]; [16],markedly higher amount of ADDL aggregates in the extracellular medium
same,insulin-stimulated ADDL internalization,[1]; [16],prevented
same,ADDLs in the extracellular medium,"[2]; 100 nM synthetic ADDLs, 37° C., 30 minutes",striking aggregation of ADDLS
same,insulin-induced ADDL uptake into cell lysate,[2]; inhibitor included prior to ADDL treatment,prevented
same,insulin-stimulated insulin receptor phosphorylation,insulin receptor [13],significantly inhibited
same,ADDLs in the extracellular medium,insulin receptor [14],striking accumulation of ADDLs in the extracellular medium
CN(C)C(=N)N=C(N)N [Metformin],tyrosine kinase activity of the insulin receptor,insulin receptor [15],enhance the tyrosine kinase activity of the insulin receptor
C=C1[C@@H](O)[C@@H]2O[C@]3(CC[C@H](/C=C/[C@@H](C)[C@@H]4CC(C)=C[C@@]5(O[C@H](C[C@@](C)(O)C(=O)O)CC[C@H]5O)O4)O3)CC[C@H]2O[C@@H]1[C@@H](O)C[C@H](C)[C@H]1O[C@@]2(CCCCO2)CC[C@H]1C [okadaic acid],duration of insulin-induced increase in pAkt ser473,Akt [9],prolonged the insulin-increased pAkt ser473
